Experimental data from patent US6740645B1, “17β-acyl-17α-propynyl-11β-(cyclic amino) aryl steroids and their derivatives having antagonist hormonal properties” (Research Triangle Institute, priority 1999, dated 2004).

Tested on: rabbit uterus
Assay: anti-McGinty test for antiprogestational activity (McPhail Index)
Assay type: in vivo
Details: for McPhail Index: estrogen-primed immature female rabbits, n = 3
Description: Biological activity was examined by means of the anti-McGinty test for antiprogestational activity. Immature female rabbits weighing 1000 to 1100 grams were primed with estrogen (5 μg of estradiol in sesame oil as vehicle, given subcutaneously) for 6 days, followed by a surgical procedure to introduce the test compounds into the uterine horn [see for example Teruhiko Tamaya, et al., Local progestational and antiprogestational effects of steroids and their metabolites on the rabbit uterus. Japanese Journal of Fertility and Sterility 24:48-51 (1979)]. A single dose of test compound in sesame oil as vehicle, accompanied by a single dose of progesterone (0.3 μg in sesame oil as vehicle) was given. On the third day (dosing being day one) the animals were sacrificed. The uteri were then removed, weighed and a section was kept in 10% formalin for microslide preparation for McPhail Index [M. K. McPhail, The Journal of Physiology, 83: 10 (1934)] determination. […] Antiprogestational compounds should block the effect of progesterone on the McPhail Index, which is zero in the absence of progesterone.

[1] = total dose 0.3 (μg) of test compound + progesterone 0.3 μg, single dose into uterine horn
[2] = total dose 3 of test compound + progesterone 0.3 μg, single dose into uterine horn
[3] = total dose 30 of test compound + progesterone 0.3 μg, single dose into uterine horn

SMILES	McPhail Index (progesterone (P) alone, total dose 0.3 (μg), uterine horn)	McPhail Index [1]	McPhail Index [2]	McPhail Index [3]	antiprogestational effect (in words) (0.3 μg dose, anti-McGinty test)	antiprogestational potency compared with RTI-6617-048 and RTI-6617-040 (in words) (anti-McGinty test, Table 1)
CC(=O)[C@H]1CC[C@H]2[C@@H]3CCC4=CC(=O)CC[C@]4(C)[C@H]3CC[C@]12C [Progesterone, progesterone]	2.2 +/− 0.3	–	–	–	–	–
C#CC1(C(C)=O)CCC2C3CCC4=CC(=O)CCC4=C3C(c3ccc(N4CCCCC4)cc3)CC21C (stereo not drawn) [RTI-6617-048, 11β-[4-(N-Piperidino)phenyl]-17α-ethynyl-19-norpregna-4,9-diene-3,20-dione]	–	1.94 +/− 0.31	0.89 +/− 0.3	0.0 +/− 0.0	–	–
CC#C[C@]1(C(C)=O)CC[C@H]2[C@@H]3CCC4=CC(=O)CCC4=C3[C@@H](c3ccc(N(C)C)cc3)C[C@@]21C [RTI-6617-040, 11β-[4-(N,N-Dimethylamino)phenyl]-17α-(1-propynyl)-19-norpregna-4,9-diene-3,20-dione]	–	1.83 +/− 0.36	0.0 +/− 0.0	0.0 +/− 0.0	–	–
CC#CC1(C(C)=O)CCC2C3CCC4=CC(=O)CCC4=C3C(c3ccc(N4CCCCC4)cc3)CC21C (stereo not drawn) [RTI-6617-041, 11β-[4-(N-piperidino)phenyl]-17α-(1-propynyl)-19-norpregna-4,9-diene-3,20-dione]	–	0.78 +/− 0.21	0.0 +/− 0.0	0.0 +/− 0.0	marked effect	markedly more potent
